Biological target: T1, human μ opiate receptor (Homo sapiens, UniProt P35372)
T1 construct: purchased PerkinElmer Life Sciences, Zaventem, Belgium RB-HOM; host or cells: CHO-K1 cells (recombinant expression)
Assay: Affinity for the human μ opiate receptor ([3H]-naloxone displacement, CHO-K1 membrane preparation, SPA)
Type: binding
Settings: for μ opioid receptor [1 μmol], % inhibition: compounds prepared via automated synthesis, single measurements at a test concentration of 1 μM
Protocol: The receptor affinity for the human μ opiate receptor is determined in a homogeneous set-up in microtitre plates. For this purpose, dilution series of the substances to be tested are incubated with a receptor membrane preparation (15-40 μg of protein/250 μl of incubation batch) of CHO-K1 cells which express the human μ opiate receptor (RB-HOM receptor membrane preparation from PerkinElmer Life Sciences, Zaventem, Belgium) in the presence of 1 nmol/l of the radioactive ligand [^3H]-naloxone (NET719, PerkinElmer Life Sciences, Zaventem, Belgium) and 1 mg of WGA-SPA-Beads (wheat germ agglutinin SPA beads from Amersham/Pharmacia, Freiburg, Germany) in a total volume of 250 μl for 90 minutes at room temperature. 50 mmol/l of Tris-HCl supplemented with 0.06% of bovine serum albumin are used as the incubation buffer. 100 μmol/l of naloxone are additionally added for determination of the non-specific binding. After the end of the ninety-minute incubation time, the microtitre plates are centrifuged for 20 minutes at 1,000 g and the radioactivity is measured in a β-counter (Microbeta-Trilum, PerkinElmer Wallac, Freiburg, Germany). The percentage displacement of the radioactive ligand from its binding to the human μ opiate receptor is determined at a concentration of the test substances of 1 μmol/l and stated as the percentage inhibition of the specific binding. Starting from the percentage displacement by various concentrations of the test substances, IC50 inhibitory concentrations which cause a 50 percent displacement of the radioactive ligand are calculated. By conversion by means of the Cheng-Prusoff relationship, Ki values for the test substances are obtained.

T1 sequence (P35372 whole entry): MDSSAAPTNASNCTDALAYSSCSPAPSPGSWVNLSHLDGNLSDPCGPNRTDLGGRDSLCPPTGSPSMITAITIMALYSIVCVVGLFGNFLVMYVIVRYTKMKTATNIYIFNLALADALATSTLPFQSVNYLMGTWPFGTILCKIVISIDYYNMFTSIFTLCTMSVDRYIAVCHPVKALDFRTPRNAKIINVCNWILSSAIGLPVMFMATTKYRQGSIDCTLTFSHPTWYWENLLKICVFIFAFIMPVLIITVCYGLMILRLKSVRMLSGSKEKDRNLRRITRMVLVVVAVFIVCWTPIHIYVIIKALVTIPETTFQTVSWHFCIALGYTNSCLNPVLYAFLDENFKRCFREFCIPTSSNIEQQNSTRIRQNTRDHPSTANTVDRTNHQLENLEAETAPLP

| SMILES | μ opioid receptor [1 μmol], % inhibition | μ opioid receptor [1 μM], % inhibition (1 μM test substance, displacement of [3H]-naloxone) |
| --- | --- | --- |
| CC(C)CC(=O)N1CCc2c([nH]c3ccccc23)C12CCC(C(c1cccc(F)c1)N(C)C)CC2 (centres unmarked) [Compound 129, 1-{1,1-[3-(dimethylamino-(3-fluorophenyl)methyl) -pentamethylene]-3,4-dihydro-1H-2,9-diazafluoren-2-yl}-3-methylbutan-1-one] | 74% | – |
| CC(C)CC(=O)N1CCc2c([nH]c3ccccc23)C12CCC(C(c1ccccc1)N(C)C)CC2 (centres unmarked) [Compound 138, 1-{1,1-[3-(dimethylamino-phenylmethyl)-pentamethylene]-3,4-dihydro-1H-2,9-diazafluoren-2-yl}-3-methylbutan-1-one] | 58% | – |
| CN(C)C(c1ccc(F)cc1)C1CCC2(CC1)c1[nH]c3ccccc3c1CCN2C(=O)COCc1ccccc1 (centres unmarked) [Compound 88, 2-(benzyloxyacetyl)-{1,1-[3-(dimethylamino-(4-fluorophenyl)methyl)-pentamethylene]-3,4-dihydro-1H-2,9-diazafluorene}] | 11% | – |
| CN(C)C(c1ccccc1)C1CCC2(CC1)c1[nH]c3ccccc3c1CCN2C(=O)Cc1ccc(F)cc1 (centres unmarked) [Compound 104, 2-[(4-fluorophenyl)acetyl]-{1,1-[3-(dimethylamino-phenylmethyl)-pentamethylene]-3,4-dihydro-1H-2,9-diazafluorene}] | 39% | – |
| CN(C)C(c1ccc(Cl)cc1)C1CCC2(CC1)c1[nH]c3ccccc3c1CCN2C(=O)COc1ccc(Cl)cc1 (centres unmarked) [Compound 77, 2-[(4-chlorophenoxy)acetyl]-{1,1-[3-(dimethylamino-(4-chlorophenyl)-methyl)-pentamethylene]-3,4-dihydro-1H-2,9-diazafluorene}] | 17% | – |
| CN(C)C(c1ccccc1)C1CCC2(CC1)c1[nH]c3ccccc3c1CCN2C(=O)C1CCCCC1 (centres unmarked) [Compound 59, 2-(cyclohexylcarbonyl)-{1,1-[3-(dimethylamino-phenylmethyl)-pentamethylene]-3,4-dihydro-1H-2,9-diazafluorene}] | 29% | – |
| CN(C)C(c1ccccc1)C1CCC2(CC1)c1[nH]c3ccccc3c1CCN2C(=O)C=Cc1ccccc1Cl (centres unmarked) [Compound 61, 1-{1,1-[3-(dimethylamino-phenylmethyl)-pentamethylene]-3,4-dihydro-1H-2,9-diazafluoren-2-yl}-3-(2-chlorophenyl)prop-2-en-1-one] | 6% | – |
| CC(Oc1ccccc1)C(=O)N1CCc2c([nH]c3ccccc23)C12CCC(C(c1ccccc1)N(C)C)CC2 (centres unmarked) [Compound 137, 2-(2-phenoxypropanoyl)-{1,1-[3-(dimethylamino-phenylmethyl)-pentamethylene]-3,4-dihydro-1H-2,9-diazafluorene}] | 68% | – |
| CCCCC(CC)C(=O)N1CCc2c([nH]c3ccccc23)C12CCC(C(c1cccc(F)c1)N(C)C)CC2 (centres unmarked) [Compound 111, 2-(2-ethylhexanoyl)-{1,1-[3-(dimethylamino-(3-fluorophenyl)methyl)-pentamethylene]-3,4-dihydro-1H-2,9-diazafluorene}] | 13% | – |
| CN(C)C(c1ccc(Cl)cc1)C1CCC2(CC1)c1[nH]c3ccccc3c1CCN2C(=O)Cc1ccc(F)cc1 (centres unmarked) [Compound 123, 2-[(4-fluorophenyl)acetyl]-{1,1-[3-(dimethylamino-(4-chlorophenyl)-methyl)-pentamethylene]-3,4-dihydro-1H-2,9-diazafluorene}] | 20% | – |
| CC1Cc2c([nH]c3ccc(F)cc23)C2(CCC(C(c3ccc(Cl)cc3)N(C)C)CC2)O1 (centres unmarked) [Compound 55, 6-Fluoro-3-methyl-1,1-[3-(dimethylamino-(4-chlorophenyl) -methyl)-penta-methylene]-1,3,4,9-tetrahydropyrano[3,4-b]indole] | – | 58% |
| COCC(=O)N1CCc2c([nH]c3ccccc23)C12CCC(C(c1ccc(Cl)cc1)N(C)C)CC2 (centres unmarked) [Compound 97, 2-(methoxyacetyl)-{1,1-[3-(dimethylamino-(4-chlorophenyl)methyl)-pentamethylene]-3,4-dihydro-1H-2,9-diazafluorene}] | 20% | – |
| CN(C)C(c1cccc(F)c1)C1CCC2(CC1)c1[nH]c3ccccc3c1CCN2C(=O)C1CC1 (centres unmarked) [Compound 91, 2-(cyclopropylcarbonyl)-{1,1-[3-(dimethylamino-(3-fluorophenyl)methyl)-pentamethylene]-3,4-dihydro-1H-2,9-diazafluorene}] | 25% | – |
| CN(C)C(c1ccc(Cl)cc1)C1CCC2(CC1)c1[nH]c3ccccc3c1CCN2C(=O)Cc1cccs1 (centres unmarked) [Compound 98, 2-(2-thienylacetyl)-{1,1-[3-(dimethylamino-(4-chlorophenyl)methyl)-pentamethylene]-3,4-dihydro-1H-2,9-diazafluorene}] | 21% | – |
| CC(=Cc1ccccc1)C(=O)N1CCc2c([nH]c3ccccc23)C12CCC(C(c1cccc(F)c1)N(C)C)CC2 (centres unmarked) [Compound 68, 1-{1,1-[3-(dimethylamino-(3-fluorophenyl)methyl) -pentamethylene]-3,4-dihydro-1H-2,9-diazafluoren-2-yl}-2-methyl-3-phenylprop-2-en-1-one] | 19% | – |
| COc1ccc(CC(=O)N2CCc3c([nH]c4ccccc34)C23CCC(C(c2ccccc2)N(C)C)CC3)cc1OC (centres unmarked) [Compound 57, 2-[(3,4-dimethoxyphenyl)acetyl]-{1,1-[3-(dimethylamino-phenylmethyl)-pentamethylene]-3,4-dihydro-1H-2,9-diazafluorene}] | 55% | – |
| CN(C)C(c1ccc(F)cc1)C1CCC2(CC1)c1[nH]c3ccccc3c1CCN2C(=O)COc1ccc(Cl)cc1 (centres unmarked) [Compound 65, 2-[(4-chlorophenoxy)acetyl]-{1,1-[3-(dimethylamino-(4-fluorophenyl)methyl)-pentamethylene]-3,4-dihydro-1H-2,9-diazafluorene}] | 17% | – |
| COc1cccc(CC(=O)N2CCc3c([nH]c4ccccc34)C23CCC(C(c2ccccc2)N(C)C)CC3)c1 (centres unmarked) [Compound 136, 2-[(3-methoxyphenyl)acetyl]-{1,1-[3-(dimethylamino-phenylmethyl)-pentamethylene]-3,4-dihydro-1H-2,9-diazafluorene}] | 75% | – |
| COc1ccc(CC(=O)N2CCc3c([nH]c4ccccc34)C23CCC(C(c2ccc(F)cc2)N(C)C)CC3)cc1OC (centres unmarked) [Compound 63, 2-[(3,4-dimethoxyphenyl)acetyl]-{1,1-[3-(dimethylamino-(4-fluorophenyl)methyl)-pentamethylene]-3,4-dihydro-1H-2,9-diazafluorene}] | 29% | – |
| CC(CC(=O)N1CCc2c([nH]c3ccccc23)C12CCC(C(c1ccc(F)cc1)N(C)C)CC2)c1ccccc1 (centres unmarked) [Compound 142, 1-{1,1-[3-(dimethylamino-(4-fluorophenyl)methyl) -pentamethylene]-3,4-dihydro-1H-2,9-diazafluoren-2-yl}-3-phenylbutan-1-one] | 30% | – |

Reference: US8124788B2, “Spirocyclic cyclohexane compounds with analgesic activity” (Gruenenthal GmbH, priority 2006, dated 2012)
